From patent US20070117818A1, “Pyrimidinone compounds useful as kinase inhibitors” (priority 2004, published 2007)

Target: T1, hYAK3 (Homo sapiens, UniProt O43781)
T1 construct: made in house; host or cells: baculovirus expression system in Sf9 cells
T1 sequence (O43781 124-526): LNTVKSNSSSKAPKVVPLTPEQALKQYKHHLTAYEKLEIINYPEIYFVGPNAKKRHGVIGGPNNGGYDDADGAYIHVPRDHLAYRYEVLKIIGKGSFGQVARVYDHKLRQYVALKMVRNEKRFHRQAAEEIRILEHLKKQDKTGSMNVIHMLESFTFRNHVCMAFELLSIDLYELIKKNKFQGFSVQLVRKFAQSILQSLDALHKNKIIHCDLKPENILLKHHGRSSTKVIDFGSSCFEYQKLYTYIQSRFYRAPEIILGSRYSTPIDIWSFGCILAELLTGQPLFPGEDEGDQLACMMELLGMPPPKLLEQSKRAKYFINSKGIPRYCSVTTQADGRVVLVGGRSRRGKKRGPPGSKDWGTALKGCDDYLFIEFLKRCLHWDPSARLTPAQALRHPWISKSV
Test: YAK3 Scintillation Proximity Assay using Ser164 of myelin basic protein as phosphoacceptor (kinase assay of purified hYAK3)
Type: biochemical
Conditions: purified GST-hYak3-His6 (aa 124-526), 0.001 mM ATP, 4 μM Ser164 peptide, 2 hours at room temperature; pIC50 = −log10(IC50)
Procedure: Substrate phosphorylation assays were carried out as follows:
YAK3 Scintillation Proximity Assays Using Ser164 of Myelin Basic Protein as the phosphoacceptor
The source of Ser164 substrate oeptide The biotinylated Ser164, S164A peptide (Biotinyl-LGGRDSRAGS*PMARR-OH), sequence derived from the C-terminus of bovine myelin basic protein (MBP) with Ser162 substituted as Ala162, was purchased from California Peptide Research Inc. (Napa, Calif.), and its purity was determined by HPLC. Phosphorylation occurs at position 164 (marked S* above). The calculated molecular mass of the peptide was 2166 dalton. Solid sample was dissolved at 10 mM in DMSO, aliquoted, and stored at −20° C. until use.
hYAK3: Glutathione-S-Transferase (GST)-hYak3-His6 containing amino acid residues 124-526 of human YAK3 (aa 124-526 of SEQ ID NO 2. in U.S. Pat. No. 6,323,318) was purified from baculovirus expression system in Sf9 cells using Glutathione Sepharose 4B column chromatography followed by Ni-NTA-Agarose column chromatography. Purity greater than 65% typically was achieved. Samples, in 50 mM Tris, 150 mM NaCl, 10% glycerol, 0.1% Triton, 250 mM imidazole, 10 mM β-mercapto ethanol, pH 8.0. were stored at −80° C. until use.
Kinase assay of purified hYAK3: Assays were performed in 96 well (Costar, Catalog No. 3789) or 384 well plates (Costar, Catalog No. 3705). Reaction (in 20, 25, or 40 μl volume) mix contained in final concentrations 25 mM Hepes buffer, pH 7.4; 10 mM MgCl2; 10 mM β-mercapto ethanol; 0.0025% Tween-20; 0.001 mMATP, 0.1 μCi of [γ-^33P]ATP; purified hYAK3 (7-14 ng/assay; 4 nM final); and 4 μM Ser164 peptide. Compounds, titrated in DMSO, were evaluated at concentrations ranging from 50 μM to 0.5 nM. […] Reactions were incubated for 2 hours at room temperature and were stopped by a 75 ul addition of 0.19 μg Streptavidin Scintillation Proximity beads (Amersham Pharmacia Biotech, Catalog No. RPNQ 0007) in PBS, pH 7.4, 10 mM EDTA, 0.1% Triton X-100, 1 mM ATP. Under the assay conditions defined above, the Km(apparent) for ATP was determined to be 7.2+-2.4 μM.

First: O=C(Nc1nc2ccc(-c3cc(=O)[nH]c(NCCc4ccc(Cl)cc4Cl)n3)cc2[nH]1)c1cccs1 [Ip, N-[5-(2-{[2-(2,4-Dichlorophenyl)ethyl]amino}-6-oxo-1,6-dihydro-4-pyrimidinyl)-1H-benzimidazol-2-yl]-2-thiophenecarboxamide]
Second: COCCNc1nc(-c2ccc3nc(NC(=O)c4cccs4)[nH]c3c2)cc(=O)[nH]1 [Il, N-[5-(2-{[2-(Methyloxy)ethyl]amino}-6-oxo-1,6-dihydro-4-pyrimidinyl)-1H-benzimidazol-2-yl]-2-thiophenecarboxamide]
The IC50 of the first is higher: 0.102 to 1 µM for the first, 0.0102 to 0.1 µM for the second. The second is the more potent here.

Work on `NS(=O)(=O)c1cccc(Nc2nc(-c3ccc4nc(NC(=O)c5cccs5)[nH]c4c3)cc(=O)[nH]2)c1` [Ig, N-[5-(2-{[3-(Aminosulfonyl)phenyl]amino}-6-oxo-1,6-dihydro-4-pyrimidinyl)-1H-benzimidazol-2-yl]-2-thiophenecarboxamide] yielded an IC50 of 0.00102 to 0.01 µM.
